# In paper PMC11449324, “Functional comparison of human and murine equilibrative nucleobase transporter 1” (PLOS ONE, 2024):
# How the values were obtained:
# [1] = target: T1, endogenous ENBT1 expressed in L1210 cells (Mus musculus, UniProt A2AVZ9); assay: [3H]6-MP uptake in L1210 cells; assay type: cell-based, murine; conditions: 30 μM [3H]6-MP
# T1 construct: MOLT-4 cells express the SLC43A3 transcript and L1210 cells express the slc43a3 transcript; host or cells: L1210
# T1 sequence (A2AVZ9 1-502): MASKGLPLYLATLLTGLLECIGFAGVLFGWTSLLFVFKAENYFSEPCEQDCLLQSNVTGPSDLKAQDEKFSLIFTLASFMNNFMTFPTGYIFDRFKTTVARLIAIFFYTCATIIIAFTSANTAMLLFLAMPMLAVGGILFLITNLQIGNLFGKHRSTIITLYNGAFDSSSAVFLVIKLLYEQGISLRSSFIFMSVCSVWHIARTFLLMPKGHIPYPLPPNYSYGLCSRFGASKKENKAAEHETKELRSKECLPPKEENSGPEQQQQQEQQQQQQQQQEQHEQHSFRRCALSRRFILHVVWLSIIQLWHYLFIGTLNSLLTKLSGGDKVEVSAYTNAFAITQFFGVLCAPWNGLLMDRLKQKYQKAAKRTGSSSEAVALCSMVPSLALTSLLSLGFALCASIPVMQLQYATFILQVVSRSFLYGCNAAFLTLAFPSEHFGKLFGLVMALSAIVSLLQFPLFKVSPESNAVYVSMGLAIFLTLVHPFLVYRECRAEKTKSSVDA
# Description: (§1) Harvested cells were suspended in nominally sodium-free N-methyl-D-glucamine (NMG) buffer (140 mM NMG, 5 mM KCl, 4.2 mM KHCO3, 0.36 mM K2HPO4, 0.44 mM KH2PO4, 0.5 mM MgCl2, 1.3 mM CaCl2, 10 mM HEPES, pH 7.4), to minimize potential contribution of sodium-dependent concentrative nucleoside transporter-mediated uptake. Additionally, cells were incubated for 15 minutes at room temperature with 10 μM dipyridamole (DY), an equilibrative nucleoside transporter (ENT) inhibitor, to block equilibrative nucleoside transporter–mediated uptake. The substrate uptake assay was initiated by adding 250 μL cell suspension to 250 μL [^3H] labeled substrate, layered over 21:4 silicone:mineral oil (200 μL) in 1.5 mL microcentrifuge tubes (conducted at room temperature). […] This is the minimum incubation time achievable with this oil-stop technique, and it was found in previous studies that these short incubation times were necessary to assess the kinetics of this transporter. […] The resulting cell pellet was digested in 250 μL 1 M NaOH overnight (~16 hours), with 220 μL aliquots of digested cells assessed for radioactive content using standard liquid scintillation counting techniques in a Beckman Coulter LS6500 scintillation system (Brea, CA).
# (§2) In transfected-HEK293 cell lines, total uptake was defined as uptake of radiolabeled substrate in cells overexpressing recombinant hENBT1 or mENBT1. […] ENBT1-mediated uptake was calculated as total uptake minus the non-mediated uptake.
# (§3) Cell water volume (μL) was estimated by incubating cells with ^3H2O for 3 minutes, centrifuging the cells through the oil layer at ~10,000 g, assessing 100 μL of the supernatant for radioactive content, and then processing as described above. Total cellular water volume was determined from the ratio of the decays per minute of the cell pellet, to the decays per minute of the supernatant, allowing for inter-experimental normalization via calculation of picomoles of substrate accumulated per microliter of cell-associated water.
# [2] = system: HEK293-EV cells (ENBT1-deficient); assay: Radiolabelled substrate uptake in empty vector HEK293-EV cells; assay type: cell-based, human; conditions: 2 seconds
# Description: This is the minimum incubation time achievable with this oil-stop technique, and it was found in previous studies that these short incubation times were necessary to assess the kinetics of this transporter. The aqueous layer was removed via vacuum-powered aspirator, and the tube was washed with 1 mL of NMG buffer prior to removal of the oil layer. […] In transfected-HEK293 cell lines, total uptake was defined as uptake of radiolabeled substrate in cells overexpressing recombinant hENBT1 or mENBT1. […] This non-mediated component would include passive diffusion into the cells and radiolabelled substrate remaining extracellularly in the digested cell pellet after processing the samples. […] ENBT1-mediated uptake was calculated as total uptake minus the non-mediated uptake. Cell water volume (μL) was estimated by incubating cells with ^3H2O for 3 minutes, centrifuging the cells through the oil layer at ~10,000 g, assessing 100 μL of the supernatant for radioactive content, and then processing as described above. Total cellular water volume was determined from the ratio of the decays per minute of the cell pellet, to the decays per minute of the supernatant, allowing for inter-experimental normalization via calculation of picomoles of substrate accumulated per microliter of cell-associated water.
# [3] = target: T2, endogenous ENBT1 expressed in MOLT-4 cells (Homo sapiens, UniProt Q8NBI5); assay: [3H]6-MP uptake in MOLT-4 cells; assay type: cell-based; conditions: 30 μM [3H]6-MP
# T2 construct: MOLT-4 cells express the SLC43A3 transcript and L1210 cells express the slc43a3 transcript; host or cells: MOLT-4
# T2 sequence (Q8NBI5 1-491): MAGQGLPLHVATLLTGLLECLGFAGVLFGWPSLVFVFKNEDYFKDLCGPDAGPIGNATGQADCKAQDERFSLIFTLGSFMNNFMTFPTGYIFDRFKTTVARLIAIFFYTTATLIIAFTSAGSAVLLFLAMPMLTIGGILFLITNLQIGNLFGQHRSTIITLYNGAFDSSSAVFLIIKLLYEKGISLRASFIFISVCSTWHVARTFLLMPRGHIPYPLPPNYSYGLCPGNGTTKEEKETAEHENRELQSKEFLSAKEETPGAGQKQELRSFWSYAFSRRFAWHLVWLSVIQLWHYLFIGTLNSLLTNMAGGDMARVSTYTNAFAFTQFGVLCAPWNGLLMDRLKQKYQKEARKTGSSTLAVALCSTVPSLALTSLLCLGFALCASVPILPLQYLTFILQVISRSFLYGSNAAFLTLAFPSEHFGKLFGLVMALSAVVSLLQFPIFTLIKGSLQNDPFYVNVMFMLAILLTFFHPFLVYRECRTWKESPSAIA
# Description: as §1, §2, §3
Structure (SMILES),k value of time-dependent uptake [1] [s⁻¹],uptake plateau [1],uptake of radiolabelled substrate [2],k value of time-dependent uptake [3] [s⁻¹],uptake plateau [3],effect on uptake of [3H]6-MP ([1]; 5 mM adenine),effect on uptake of [3H]6-MP ([3]; 5 mM adenine)
"Sc1ncnc2nc[nH]c12 [6-MP, 6-Mercaptopurine]",0.22 ± 0.05,roughly 30 pmol/μL,minimal uptake,0.34 ± 0.09,roughly 30 pmol/μL,,
"Nc1ncnc2[nH]cnc12 [adenine, Adenine]",,,minimal uptake,,,significantly inhibited,significantly inhibited
